Measurements as given in EP1377579B1 (Aventis Pharmaceuticals Inc., priority 2000, dated 2002).
Counter-ions that a name gives are not always drawn.

Assays:
Jurkat = test: In vitro proliferation assay (MTT), Jurkat; type: cell-based; conditions: Homo sapiens, MTT assay, value (SD, n) where given, read-out: Jurkat Leuk. (IC50 µM)
Description: (§1) The proliferation of tumor cells can be measured using a tetrazolium salt-based assay known as the MTT (3-[4,5-Dimethylthiazol-2-yl]-2,5-diphenyltetrazolium bromide) assay. The proliferation test is performed essentially as described by Carmichael et al., Cancer Res. 47: 936-942, 1987. For the assay, the cell lines are plated onto 96 well plates at 1000 to 2500 cells/well (depending on the properties of the individual cell lines), left to attach and recover overnight. […] After 3 days, the cells are incubated with MTT dye (3-[4,5-Dimethylthiazol-2-yl]-2,5-diphenyltetrazolium bromide, Sigma # M5655, 10 mg/ml in Hank's Buffered Saline) to estimate the amount of live cells remaining vs. concentration for the test compounds. Specifically, MTT solution is added to a final concentration of […] and the plates incubated at 37 C for 2 to 4 hr. The MTT and culture medium is then removed from the cultures and 200 µl of DMSO is added to solubilize the dye from the cell layer. The absorbance at 570 nm is determined for each culture using a Spectramax plate reader (Molecular Devices).
(§2) IC50s were determined from the raw data from either the MTT or SRB assays.
(§3) All of the cell lines were obtained from American Type Tissue Collection, with the ATCC accession number in parentheticals. MCF-7 and MDA-MB-231 cells were grown in improved minimum essential medium (Biofluids) without phenol red, supplemented with 5 % fetal bovine serum, 0.01 mg/ml gentamicin and 3 mM L-glutamine. All of the other cell lines were grown in RPMI 1640 medium (Life Technologies) supplemented with 5 % fetal bovine serum, 0.01 mg/ml gentamicin and 3 mM L-glutamine TABLE 3

PC-3 = test: In vitro proliferation assay (MTT), PC-3; type: cell-based, human; conditions: Homo sapiens, PC-3, MTT assay; value (SD, n) where given; read-out: PC-3 Prostate (IC50 µM)
In short: (§4)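 Tetrazolium (MTT) reduction measures live cells remaining after 3 days with test compound, following overnight attachment at 1000–2500 cells/well. Dye is taken up in DMSO and read at 570 nm.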

NCI-H460 = test: In vitro proliferation assay (MTT), NCI-H460; type: cell-based; conditions: Homo sapiens, NCI-H460; MTT assay; value (SD, n) where given; read-out: H-460 Lung (IC50 µM)
In short: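 Overnight-recovered cultures (1000–2500 cells/well) were treated with compound for 3 days and then given MTT at 37 C for 2–4 hr. Dye was extracted with DMSO and read at 570 nm. IC50s were fitted to the absorbance-versus-concentration data.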

cdk4/cyclin D1 = cdk4/cyclin D1 (Homo sapiens, UniProt P11802); test: Cyclin-dependent kinase assay, cdk4/cyclin D1; type: biochemical; conditions: cyclin D1/cdk4; GST-pRb substrate, 10 µM ATP
cdk4/cyclin D1, sequence (P11802 whole entry): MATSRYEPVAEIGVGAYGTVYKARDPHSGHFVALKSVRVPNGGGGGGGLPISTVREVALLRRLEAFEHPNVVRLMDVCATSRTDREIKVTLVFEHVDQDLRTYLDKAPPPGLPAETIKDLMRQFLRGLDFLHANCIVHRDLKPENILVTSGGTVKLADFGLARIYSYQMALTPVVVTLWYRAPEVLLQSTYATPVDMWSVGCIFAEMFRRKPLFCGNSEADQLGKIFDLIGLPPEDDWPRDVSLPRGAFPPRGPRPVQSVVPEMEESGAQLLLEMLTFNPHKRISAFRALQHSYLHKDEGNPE
cdk4/cyclin D1, sequence (P24385 whole entry partner): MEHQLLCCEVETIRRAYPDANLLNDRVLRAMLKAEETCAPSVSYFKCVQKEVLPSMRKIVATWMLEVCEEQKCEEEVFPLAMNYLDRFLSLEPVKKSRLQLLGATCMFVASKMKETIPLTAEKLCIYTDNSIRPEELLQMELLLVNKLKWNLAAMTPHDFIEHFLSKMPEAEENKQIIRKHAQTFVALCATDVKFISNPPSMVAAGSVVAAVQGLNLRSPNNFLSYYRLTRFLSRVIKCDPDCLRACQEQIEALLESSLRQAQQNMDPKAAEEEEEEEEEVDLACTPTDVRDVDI

MDA-MB-435 = test: In vitro proliferation assay (MTT), MDA-MB-435; type: cell-based, human; conditions: Homo sapiens, MDA-MB-435, MTT assay; value (SD, n) where given; read-out: MB-435 Breast (IC50 µM)
In short: as §4

HL-60 = test: In vitro proliferation assay (MTT), HL-60; type: cell-based; conditions: Homo sapiens, HL-60; MTT assay; value (SD, n) where given; read-out: HL-60 Leuk. (IC50 µM)
Description: as §1, §2, §3

cdk1/cyclin B = cdk1/cyclin B (Homo sapiens, UniProt P06493); test: Cyclin-dependent kinase assay, cdk1/cyclin B; conditions: CDK1 IC50, nM, Histone H1, 10 µM ATP
cdk1/cyclin B, sequence (P06493 whole entry): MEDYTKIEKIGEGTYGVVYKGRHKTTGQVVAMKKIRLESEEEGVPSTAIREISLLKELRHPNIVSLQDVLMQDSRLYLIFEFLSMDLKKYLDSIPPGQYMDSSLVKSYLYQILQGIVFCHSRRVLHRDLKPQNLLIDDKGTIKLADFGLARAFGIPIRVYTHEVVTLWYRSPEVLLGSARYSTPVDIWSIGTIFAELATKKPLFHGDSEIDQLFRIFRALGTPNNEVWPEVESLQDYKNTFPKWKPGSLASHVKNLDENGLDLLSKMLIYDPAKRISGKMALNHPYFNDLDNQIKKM
cdk1/cyclin B, sequence (P14635 whole entry partner): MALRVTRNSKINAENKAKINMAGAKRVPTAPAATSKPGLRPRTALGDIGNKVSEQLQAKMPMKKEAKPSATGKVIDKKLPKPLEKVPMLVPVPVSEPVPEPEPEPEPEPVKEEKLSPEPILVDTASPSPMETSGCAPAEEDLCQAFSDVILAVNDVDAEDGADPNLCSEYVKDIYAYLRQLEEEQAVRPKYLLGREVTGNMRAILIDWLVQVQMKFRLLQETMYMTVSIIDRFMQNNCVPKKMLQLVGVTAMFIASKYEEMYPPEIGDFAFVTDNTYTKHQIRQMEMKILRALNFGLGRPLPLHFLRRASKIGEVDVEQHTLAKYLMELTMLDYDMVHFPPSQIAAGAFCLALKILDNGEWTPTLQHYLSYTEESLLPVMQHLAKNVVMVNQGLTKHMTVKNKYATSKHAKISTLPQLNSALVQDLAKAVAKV

Colo-205 = test: In vitro proliferation assay (MTT), Colo-205; type: cell-based; conditions: Homo sapiens, COLO 205; MTT assay; value (SD, n) where given; read-out: Colo-205 Colon (IC50 µM)
In short: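 After 3 days of compound exposure, MTT was added to Colo-205 cultures for 2–4 h at 37 °C. Formazan was dissolved in DMSO and absorbance read at 570 nm. Cells had been plated at 1000–2500/well and left to recover overnight; IC50 values came from the raw readings.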

cdk2/cyclin E = cdk2/cyclin E (Homo sapiens, UniProt P24941); test: Cyclin-dependent kinase assay, cdk2/cyclin E; conditions: CDK2 IC50, nM, GST-pRb substrate, 10 µM ATP

SMILES | IC50 (Jurkat) [µM] | IC50 (PC-3) [µM] | IC50 (NCI-H460) [µM] | IC50 (cdk4/cyclin D1) [nM] | IC50 (MDA-MB-435) [µM] | IC50 (HL-60) [µM] | IC50 (cdk1/cyclin B) [nM] | IC50 (Colo-205) [µM] | IC50 (cdk2/cyclin E) [nM]
N[C@H]1CC[C@H](Nc2nc(NC3CCN(S(=O)(=O)c4ccc(C(F)(F)F)cc4[N+](=O)[O-])CC3)c3ncn(C4CCCC4)c3n2)CC1 [compound 132, trans-N^2-(4-Amino-cyclohexyl)-9-cyclopentyl-N^6-[1-(2-nitro-4-trifluoromethyl-benzenesulfonyl)-piperidin-4-yl]-9H-purine-2,6-diamine dihydrochloride] | 0.21 | 0.15 | 0.12 | 590 | 0.21 | < 0.02 | 74 | 0.04 | 35
N[C@H]1CC[C@H](Nc2nc(NC3CCN(S(=O)(=O)c4cccc5cccnc45)CC3)c3ncn(C4CCCC4)c3n2)CC1 [compound 144, trans-N^2-(4-Amino-cyclohexyl)-9-cyclopentyl-N^6-[1-(quinoline-8-sulfonyl)-piperidin-4-yl]-9H-purine-2,6-diamine dihydrochloride] | 0.25 | 0.18 | 0.33 | 75 | 0.16 | 0.12 | 2 | 0.05 | 2
N[C@H]1CC[C@H](Nc2nc(NC3CCN(C(=O)Nc4ccccc4)CC3)c3ncn(C4CCCC4)c3n2)CC1 [compound 146, trans-4-[2-(4-Amino-cyclohexylamino)-9-cyclopentyl-9H-purin-6-ylamino]-piperidine-1-carboxylic acid phenylamide dihydrochloride] | 0.32 | 0.34 | 0.42 | 200 | 0.35 | 0.04 | 18 | < 0.02 | 42
N[C@H]1CC[C@H](Nc2nc(NC3CCN(C(=O)Nc4ccc(F)cc4)CC3)c3ncn(C4CCCC4)c3n2)CC1 [compound 147, trans-4-[2-(4-Amino-cyclohexylamino)-9-cyclopentyl-9H-purin-6-ylamino]-piperidine-1-carboxylic acid (4-fluoro-phenyl)-amide dihydrochloride] | 0.51 | 0.36 | 0.56 | 258 | 0.33 | 0.03 | 38 | < 0.02 | 46
N[C@H]1CC[C@H](Nc2nc(NC3CCN(C(=O)Nc4ccc(Cl)cc4)CC3)c3ncn(C4CCCC4)c3n2)CC1 [compound 150, trans-4-[2-(4-Amino-cyclohexylamino)-9-cyclopentyl-9H-purin-6-ylamino]-piperidine-1-carboxylic acid (4-chloro-phenyl)-amide dihydrochloride] | 0.24 | 0.25 | 0.19 | 91 | 0.2 | < 0.02 | 26 | 0.02 | 55
N[C@H]1CC[C@H](Nc2nc(NC3CCN(C(=O)Nc4cccc(C(F)(F)F)c4)CC3)c3ncn(C4CCCC4)c3n2)CC1 [compound 159, trans-4-[2-(4-Amino-cyclohexylamino)-9-cyclopentyl-9H-purin-6-ylamino]-piperidine-1-carboxylic acid (3-trifluoromethyl-phenyl)-amide dihydrochloride] | 0.41 | 0.33 | 0.4 | 702 | 0.2 | 0.07 | 4 | 0.02 | 16
N[C@H]1CC[C@H](Nc2nc(NC3CCN(C(=O)Nc4ccc(Br)cc4)CC3)c3ncn(C4CCCC4)c3n2)CC1 [compound 162, trans-4-[2-(4-Amino-cyclohexylamino)-9-cyclopentyl-9H-purin-6-ylamino]-piperidine-1-carboxylic acid (4-bromo-phenyl)-amide dihydrochloride] | 0.19 | 0.12 | 0.18 | 603 | 0.14 | < 0.02 | 15 | 0.04 | 72
COc1ccccc1NC(=O)N1CCC(Nc2nc(N[C@H]3CC[C@H](N)CC3)nc3c2ncn3C2CCCC2)CC1 [compound 163, trans-4-[2-(4-Amino-cyclohexylamino)-9-cyclopentyl-9H-purin-6-ylamino]-piperidine-1-carboxylic acid (2-methoxy-phenyl)-amide dihydrochloride] | 0.28 | 0.21 | 0.21 | 855 | 0.17 | 0.05 | 37 | 0.19 | 57
N[C@H]1CC[C@H](Nc2nc(NC3CCN(C(=O)Nc4cccc(Cl)c4)CC3)c3ncn(C4CCCC4)c3n2)CC1 [compound 165, trans-4-[2-(4-Amino-cyclohexylamino)-9-cyclopentyl-9H-purin-6-ylamino]-piperidine-1-carboxylic acid (3-chloro-phenyl)-amide dihydrochloride] | 0.22 | 0.13 | 0.2 | 711 | 0.08 | < 0.02 | 11 | 0.02 | 21
N[C@H]1CC[C@H](Nc2nc(NC3CCN(C(=O)Nc4ccccc4Cl)CC3)c3ncn(C4CCCC4)c3n2)CC1 [compound 169, trans-4-[2-(4-Amino-cyclohexylamino)-9-cyclopentyl-9H-purin-6-ylamino]-piperidine-1-carboxylic acid (2-chloro-phenyl)-amide dihydrochloride] | 0.21 | 0.15 | 0.15 | 130 | 0.11 | 0.04 | 28 | 0.09 | 45
N[C@H]1CC[C@H](Nc2nc(NC3CCN(C(=O)Nc4cccc(Br)c4)CC3)c3ncn(C4CCCC4)c3n2)CC1 [compound 170, trans-4-[2-(4-Amino-cyclohexylamino)-9-cyclopentyl-9H-purin-6-ylamino]-piperidine-1-carboxylic acid (3-bromo-phenyl)-amide dihydrochloride] | 0.24 | 0.26 | 0.3 | 156 | 0.19 | < 0.02 | 3 | < 0.02 | 51
CCOc1ccccc1NC(=O)N1CCC(Nc2nc(N[C@H]3CC[C@H](N)CC3)nc3c2ncn3C2CCCC2)CC1 [compound 171, trans-4-[2-(4-Amino-cyclohexylamino)-9-cyclopentyl-9H-purin-6-ylamino]-piperidine-1-carboxylic acid (2-ethoxy-phenyl)-amide dihydrochloride] | 0.31 | 0.23 | 0.23 | 963 | 0.25 | 0.05 | 51 | 0.14 | 89
N[C@H]1CC[C@H](Nc2nc(NC3CCN(C(=O)Nc4ccc(OC(F)(F)F)cc4)CC3)c3ncn(C4CCCC4)c3n2)CC1 [compound 175, trans-4-[2-(4-Amino-cyclohexylamino)-9-cyclopentyl-9H-purin-6-ylamino]-piperidine-1-carboxylic acid (4-trifluoromethoxy-phenyl)-amide dihydrochloride] | 0.16 | 0.2 | 0.23 | 682 | 0.12 | 0.04 | 12 | 0.05 | 114
